# Test results published in article PMC11707430, “Novel antibiotics against Staphylococcus aureus without detectable resistance by targeting proton motive force and FtsH” (MedComm, 2025).
# Tests used:
# S. aureus = assay: MIC determination by microbroth dilution; type: cell-based, Staphylococcus aureus; settings: Staphylococcus aureus; structure-activity relationship of C218-0546 analogs (Figure S1); read-out: MIC
# Description: (§1) Minimal inhibitory concentration (MIC) determination. The detection of MIC was performed by the microbroth dilution method with reference to the previously report by Wang et al^2. Briefly, the fresh bacterial suspension was adjusted to a McF standard equivalent of 0.5 (~1.5 × 10^8 CFU/mL) and then 100-fold diluted with MH broth. Fifty microliters of bacterial suspension with equal volume of serially diluted compounds (1-128 µg/mL) were added into a 96-well cell plate (Corning Costar, the United States) and incubated at 37°C for 16-18 h. The bacterial suspension without compounds was used as a negative control. The lowest concentration that inhibited visible bacterial growth was considered as the value of MIC.
# A. baumannii = assay: MIC determination by microbroth dilution; type: cell-based; settings: Acinetobacter baumannii, ATCC19606; ATCC 19606
# Description: as §1
# E. coli = assay: MIC determination by microbroth dilution; type: cell-based; settings: Escherichia coli, ATCC25922; ATCC 25922
# Description: as §1
# E. faecium = assay: MIC determination by microbroth dilution; type: cell-based; settings: Enterococcus faecium
# Description: as §1
# P. aeruginosa = assay: MIC determination by microbroth dilution; type: cell-based; settings: Pseudomonas aeruginosa, PAO1
# Description: as §1
# S. epidermidis = assay: MIC determination by microbroth dilution; type: cell-based; settings: Staphylococcus epidermidis
# Description: as §1
# S. aureus ATCC 43300 [1] = assay: Concentration-dependent growth inhibition; type: cell-based
# Description: Concentration-dependent growth inhibition. S. aureus was cultured in TSB to log phase, and diluted with MH broth to ~2×10^6 CFU/mL. One hundred microliters of the bacterial suspension with an equal volume of 2-fold diluted compounds were added in a 96-well cell culture plate. After incubation at 37 ℃ for 16h, the bacterial growth was quantified by measuring the OD value at 630nm (OD630nm).
# Human RBCs = assay: Red blood cell (RBC) lysis assay; type: cell-based; settings: 1 h
# Description: Red blood cell (RBC) lysis assay. Human RBCs (Hemo Pharmaceutical and Biological Co.) were suspended in 1× PBS and diluted to a final concentration of 4% (vol/vol). The RBCs suspension was then incubated with serially diluted compounds at 37°C for 1h. Then, the supernatant was collected by centrifugation and the absorbance at 570 nm […]) was measured. Triton X-100 (0.1%, vol/vol) and DMSO (1%, vol/vol) were served as positive and negative controls, respectively^16.
# [2] = test system: Salmonella typhimurium (TA97a, TA98, TA100, and TA1535) and E. coli WP2 uvrA (pKM101); assay: Ames test (overall); type: cell-based
# Description: Ames test. Genotoxicity of the compounds was determined by Ames Kit (IPHASE, Beijing, China) containing Salmonella typhimurium (TA97a, TA98, TA100, and TA1535) and E. coli WP2 uvrA (pKM101). Diclofenac and 2-aminofluorene were used as positive controls for TA97a and TA98. Methyl methanesulfonate and 2-aminofluorene were used as positive controls for TA100. Methyl methanesulfonate and 2-aminoanthracene were used as positive controls for WP2 uvrA (pKM101). NaN3 and 2-aminoanthracene were used as positive controls for TA1535. The bottom and top layer culture medium, and S9 mixed solution were prepared according to the manufacturer’s instructions. After incubation at 37℃ for 48h, the colonies were counted.
# S. aureus biofilm = assay: Biofilm determination by XTT assay; type: cell-based
# Description: Biofilm determination by XTT assay. To determine the biofilm inhibition, overnight cultures of S. aureus were diluted with TSB containing 2-fold diluted antimicrobials at the ratio of 1: 100 and added to a 96-well plate. After incubation statically at 37 ℃ for 24h, the supernatant was carefully removed and washed with PBS. (2,3-Bis-(2-methoxy-4-nitro-5-sulfophenyl)-2H-tetrazolium-5-carboxanilide) (XTT, 0.2 mg/ml) and Phenazin (methylsufate) (PMS, 0.02 mg/ml) were mixed with 1× PBS and added to each well of the 96-well plate (100 μL/well). The plate was then incubated for 3h in the dark, and the absorbance was measured at 490 nm (A490nm). For biofilm eradication, overnight cultures of S. aureus were diluted with fresh TSB at 1:100 and incubated for 24h to pre-form biofilms. Subsequently, the supernatant was removed and washed with PBS, and 200 μL of TSB in the presence of 2-fold diluted antimicrobials was added to each well. After incubation at 37 ℃ for 24h, the supernatant was removed and stained with XTT as described above^7.
# [3] = Plasma protein binding rate; type: in vitro ADME; settings: human plasma
# Description: Plasma protein binding rate calculation. Human plasma was purchased from IPHASE (Beijing, China). C218-0546 or STK848198 was added into human plasma to a final concentration of 0.5, 2 and 5 μg/mL, respectively. Warfarin sodium and PBS was used as positive control and blank control, respectively. The samples were added to the upper side of the dialysis membrane (IPHASE, Beijing, China) and PBS was added to its lower side. After incubation at room temperature for 12h, the concentration of C218-0546 and STK848198 at the both sides were detected by the LC-MS. The plasma protein binding rate (%) was calculated as: (1-Cf/Cp) × 100%. Cf, concentration of free compounds (lower side). Cp, plasma protein binding compounds (upper side).
# S. aureus ATCC 43300 [4] = assay: S. aureus-related abscess model; type: in vivo, ICR mice; settings: STK848198 combined with AMP, s.c.
# Description: S. aureus-related abscess model. Six to seven-week-old female, specific pathogen free outbred ICR mice were anesthetized with 1% sodium pentobarbital (50 mg/kg). The back hair was shaved with an electric razor. A 50 μL of S. aureus ATCC 43300 suspension containing 1× 10^8 CFU/ml cells was subcutaneously injected (s.c.) into the back of the mice. The mice were randomized into four groups (N = 5-6 mice per group): (1) Vehicle group, (2) C218-0546 (30 mg/kg) or STK848198 (30 mg/kg) treatment group, (3) Amikacin (25 mg/kg) treatment group, (4) C218-0546 ([…]) treatment group. Each group was administrated by s.c. after 1h post infection. The mice were sacrificed at 24h post infection, and their lesions were removed and homogenized for viable bacterial cells counting. Meanwhile, the lesions were dislocated and immersed in 4% paraformaldehyde for hematoxylin-eosin (H&E) staining, Giemsa staining and immunohistochemical analysis, respectively^22.
smiles,measurement,setting,value
Cc1nc2c(-c3ccc(Cl)cc3)cnn2c(O)c1Cc1ccccc1 [STK848198],MIC,S. aureus,2 mg/L
same,MIC,A. baumannii,> 32 mg/L
same,MIC,E. coli,> 32 mg/L
same,MIC,"E. faecium; ATCC19434, ATCC 19434",8 mg/L
same,MIC,"E. faecium; U101, vancomycin resistant strain",4 mg/L
same,MIC,P. aeruginosa,> 32 mg/L
same,MIC,"S. epidermidis; ATCC12228, ATCC 12228",1 mg/L
same,MIC,S. epidermidis; RP62A,1 mg/L
same,concentration at which growth inhibition was observed,S. aureus ATCC 43300 [1],0.25 ×MIC
same,hemolysis activity,Human RBCs,No hemolysis activity
same,genotoxicity,[2],no genotoxicity
same,concentration inhibiting biofilm viability,S. aureus biofilm; biofilm inhibition,0.125 µg/mL
same,concentration reducing preformed biofilm viability,S. aureus biofilm; preformed biofilm,0.5 µg/mL
same,plasma protein binding rate,[3],high
same,"in vivo synergy, viable cell counts in abscess",S. aureus ATCC 43300 [4],exhibited synergy
